Results on five compounds are retold here after the supplement of paper PMC10307832.

For the first assay, the system named is LK-2. The experiment in a line: relative viability (nuclei count vs DMSO), 5 days (fraction); higher = more cells survive. Conditions: first compound 2.53 µM. The procedure, abridged:
(§1)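 Relative viability equals treated-well nuclei counts divided by vehicle-well nuclei counts. Counts came from 4× images of lung cancer cell lines grown in 1536-well plates for 5 days after pin-tool dosing on the day after seeding. Dosing used one drug alone or a fixed anchor-drug dose plus five library-drug doses (not always all listed) in √10 steps, and values are medians of duplicate plates.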
Regarding `CCCCCCCCCCCC1=C(O)C(=O)C=C(O)C1=O` [Embelin] + COc1cccc2cc(-c3nc([C@H]4CC[C@H](C(=O)O)CC4)n4ncnc(N)c34)[nH]c12 [OSI-027] (partner 0.5 µM), the relative viability amounted to 0.22.
On the same count and under the same terms, in the case of `CCCCCCCCCCCC1=C(O)C(=O)C=C(O)C1=O` [Embelin] + Nc1nc2[nH]cc(CCc3ccc(C(=O)N[C@@H](CCC(=O)O)C(=O)O)cc3)c2c(=O)[nH]1 [Pemetrexed] (partner 0.2 µM) it was 0.385.

The same assay, now with this note: first compound 8 µM.
On to `CCCCCCCCCCCC1=C(O)C(=O)C=C(O)C1=O` [Embelin] + CCNC(=O)c1noc(-c2cc(C(C)C)c(O)cc2O)c1-c1ccc(CN2CCOCC2)cc1 [Luminespib] (partner 0.01 µM), for which the relative viability is 0.198.
The same measure, in the same setting: in the case of `CCCCCCCCCCCC1=C(O)C(=O)C=C(O)C1=O` [Embelin] + Cc1nc(Nc2ncc(C(=O)Nc3c(C)cccc3Cl)s2)cc(N2CCN(CCO)CC2)n1 [Dasatinib] (partner 0.075 µM) it was 0.237.
Same read-out and setting: in the case of `CCCCCCCCCCCC1=C(O)C(=O)C=C(O)C1=O` [Embelin] + CC(=O)c1c(C)c2cnc(Nc3ccc(N4CCNCC4)cn3)nc2n(C2CCCC2)c1=O [Palbociclib] (partner 0.5 µM) it was 0.702; in that of `CCCCCCCCCCCC1=C(O)C(=O)C=C(O)C1=O` [Embelin] + COc1cccc2cc(-c3nc([C@H]4CC[C@H](C(=O)O)CC4)n4ncnc(N)c34)[nH]c12 [OSI-027] (partner 0.5 µM), 0.194; in that of `CCCCCCCCCCCC1=C(O)C(=O)C=C(O)C1=O` [Embelin] + Nc1nc2[nH]cc(CCc3ccc(C(=O)N[C@@H](CCC(=O)O)C(=O)O)cc3)c2c(=O)[nH]1 [Pemetrexed] (partner 0.2 µM), 0.289.

Another assay deals with HCC-15. Described as above. Conditions: first compound 0.08 µM. In outline:
as §1
The compound `CCCCCCCCCCCC1=C(O)C(=O)C=C(O)C1=O` [Embelin] + CCNC(=O)c1noc(-c2cc(C(C)C)c(O)cc2O)c1-c1ccc(CN2CCOCC2)cc1 [Luminespib] (partner 0.01 µM) showed a relative viability of 0.243.
With `CCCCCCCCCCCC1=C(O)C(=O)C=C(O)C1=O` [Embelin] + Cc1nc(Nc2ncc(C(=O)Nc3c(C)cccc3Cl)s2)cc(N2CCN(CCO)CC2)n1 [Dasatinib] (partner 0.075 µM), the relative viability was determined as 0.592.
Same read-out and setting: in the case of `CCCCCCCCCCCC1=C(O)C(=O)C=C(O)C1=O` [Embelin] + CC(=O)c1c(C)c2cnc(Nc3ccc(N4CCNCC4)cn3)nc2n(C2CCCC2)c1=O [Palbociclib] (partner 0.5 µM) it was 0.703; in that of `CCCCCCCCCCCC1=C(O)C(=O)C=C(O)C1=O` [Embelin] + COc1cccc2cc(-c3nc([C@H]4CC[C@H](C(=O)O)CC4)n4ncnc(N)c34)[nH]c12 [OSI-027] (partner 0.5 µM), 0.666; in that of `CCCCCCCCCCCC1=C(O)C(=O)C=C(O)C1=O` [Embelin] + Nc1nc2[nH]cc(CCc3ccc(C(=O)N[C@@H](CCC(=O)O)C(=O)O)cc3)c2c(=O)[nH]1 [Pemetrexed] (partner 0.2 µM), 0.226.

Staying with this assay, now noted: first compound 0.8 µM.
The compound `CCCCCCCCCCCC1=C(O)C(=O)C=C(O)C1=O` [Embelin] + CCNC(=O)c1noc(-c2cc(C(C)C)c(O)cc2O)c1-c1ccc(CN2CCOCC2)cc1 [Luminespib] (partner 0.01 µM) came in with a relative viability of 0.299.
Same read-out and setting: in the case of `CCCCCCCCCCCC1=C(O)C(=O)C=C(O)C1=O` [Embelin] + Cc1nc(Nc2ncc(C(=O)Nc3c(C)cccc3Cl)s2)cc(N2CCN(CCO)CC2)n1 [Dasatinib] (partner 0.075 µM) it was 0.628; in that of `CCCCCCCCCCCC1=C(O)C(=O)C=C(O)C1=O` [Embelin] + CC(=O)c1c(C)c2cnc(Nc3ccc(N4CCNCC4)cn3)nc2n(C2CCCC2)c1=O [Palbociclib] (partner 0.5 µM), 0.757.
As for `CCCCCCCCCCCC1=C(O)C(=O)C=C(O)C1=O` [Embelin] + COc1cccc2cc(-c3nc([C@H]4CC[C@H](C(=O)O)CC4)n4ncnc(N)c34)[nH]c12 [OSI-027] (partner 0.5 µM), the relative viability is 0.758.
On the same count and under the same terms, under `CCCCCCCCCCCC1=C(O)C(=O)C=C(O)C1=O` [Embelin] + Nc1nc2[nH]cc(CCc3ccc(C(=O)N[C@@H](CCC(=O)O)C(=O)O)cc3)c2c(=O)[nH]1 [Pemetrexed] (partner 0.2 µM) stands 0.24.

The same assay, now with this note: first compound 2.53 µM.
`CCCCCCCCCCCC1=C(O)C(=O)C=C(O)C1=O` [Embelin] + CCNC(=O)c1noc(-c2cc(C(C)C)c(O)cc2O)c1-c1ccc(CN2CCOCC2)cc1 [Luminespib] (partner 0.01 µM) displayed a relative viability of 0.3.
Still for that read-out and setting: under `CCCCCCCCCCCC1=C(O)C(=O)C=C(O)C1=O` [Embelin] + Cc1nc(Nc2ncc(C(=O)Nc3c(C)cccc3Cl)s2)cc(N2CCN(CCO)CC2)n1 [Dasatinib] (partner 0.075 µM) stands 0.711; under `CCCCCCCCCCCC1=C(O)C(=O)C=C(O)C1=O` [Embelin] + CC(=O)c1c(C)c2cnc(Nc3ccc(N4CCNCC4)cn3)nc2n(C2CCCC2)c1=O [Palbociclib] (partner 0.5 µM), 0.857.
Same read-out and setting: in the case of `CCCCCCCCCCCC1=C(O)C(=O)C=C(O)C1=O` [Embelin] + COc1cccc2cc(-c3nc([C@H]4CC[C@H](C(=O)O)CC4)n4ncnc(N)c34)[nH]c12 [OSI-027] (partner 0.5 µM) it was 0.721.
Turning to `CCCCCCCCCCCC1=C(O)C(=O)C=C(O)C1=O` [Embelin] + Nc1nc2[nH]cc(CCc3ccc(C(=O)N[C@@H](CCC(=O)O)C(=O)O)cc3)c2c(=O)[nH]1 [Pemetrexed] (partner 0.2 µM), the relative viability was 0.233.

The assay is the same for the next values; noted with them: first compound 8 µM.
`CCCCCCCCCCCC1=C(O)C(=O)C=C(O)C1=O` [Embelin] + CCNC(=O)c1noc(-c2cc(C(C)C)c(O)cc2O)c1-c1ccc(CN2CCOCC2)cc1 [Luminespib] (partner 0.01 µM) came in with a relative viability of 0.302.
On the same count and under the same terms, under `CCCCCCCCCCCC1=C(O)C(=O)C=C(O)C1=O` [Embelin] + Cc1nc(Nc2ncc(C(=O)Nc3c(C)cccc3Cl)s2)cc(N2CCN(CCO)CC2)n1 [Dasatinib] (partner 0.075 µM) stands 0.582.
The same measure, in the same setting: under `CCCCCCCCCCCC1=C(O)C(=O)C=C(O)C1=O` [Embelin] + CC(=O)c1c(C)c2cnc(Nc3ccc(N4CCNCC4)cn3)nc2n(C2CCCC2)c1=O [Palbociclib] (partner 0.5 µM) stands 0.774; under `CCCCCCCCCCCC1=C(O)C(=O)C=C(O)C1=O` [Embelin] + COc1cccc2cc(-c3nc([C@H]4CC[C@H](C(=O)O)CC4)n4ncnc(N)c34)[nH]c12 [OSI-027] (partner 0.5 µM), 0.625.
On the same count and under the same terms, in the case of `CCCCCCCCCCCC1=C(O)C(=O)C=C(O)C1=O` [Embelin] + Nc1nc2[nH]cc(CCc3ccc(C(=O)N[C@@H](CCC(=O)O)C(=O)O)cc3)c2c(=O)[nH]1 [Pemetrexed] (partner 0.2 µM) it was 0.207.

Another assay relates to NCI-H2085. The assay is described as above. Conditions: first compound 0.08 µM. In outline: as §1
`CCCCCCCCCCCC1=C(O)C(=O)C=C(O)C1=O` [Embelin] + CCNC(=O)c1noc(-c2cc(C(C)C)c(O)cc2O)c1-c1ccc(CN2CCOCC2)cc1 [Luminespib] (partner 0.01 µM) gave a relative viability of 0.458.
Same read-out and setting: under `CCCCCCCCCCCC1=C(O)C(=O)C=C(O)C1=O` [Embelin] + Cc1nc(Nc2ncc(C(=O)Nc3c(C)cccc3Cl)s2)cc(N2CCN(CCO)CC2)n1 [Dasatinib] (partner 0.075 µM) stands 0.253.
Compound `CCCCCCCCCCCC1=C(O)C(=O)C=C(O)C1=O` [Embelin] + CC(=O)c1c(C)c2cnc(Nc3ccc(N4CCNCC4)cn3)nc2n(C2CCCC2)c1=O [Palbociclib] (partner 0.5 µM) showed a relative viability of 0.441.
Still for that read-out and setting: in the case of `CCCCCCCCCCCC1=C(O)C(=O)C=C(O)C1=O` [Embelin] + COc1cccc2cc(-c3nc([C@H]4CC[C@H](C(=O)O)CC4)n4ncnc(N)c34)[nH]c12 [OSI-027] (partner 0.5 µM) it was 0.743; in that of `CCCCCCCCCCCC1=C(O)C(=O)C=C(O)C1=O` [Embelin] + Nc1nc2[nH]cc(CCc3ccc(C(=O)N[C@@H](CCC(=O)O)C(=O)O)cc3)c2c(=O)[nH]1 [Pemetrexed] (partner 0.2 µM), 0.854.
